The results in this text go back to patent US20220062431A1, “COMPOUNDS COMPRISING STAPLED OR STITCHED PEPTIDES FOR IMPROVED DRUG DELIVERY” (Sutura Therapeutics Ltd, priority 2017, published 2022).

The test system of data set [1] is HeLa pLuc 705 cells. The experiment in a line: % viable cells judged by gated cells compared to negative controls (flow cytometry). It is filed as cell-based. How it is done:
(§1) HeLa pLuc705 cells were cultured in high glucose DMEM supplemented with 10% foetal calf serum (Sigma, UK) at 37° C. under an 8% CO2/92% air atmosphere.
(§2) HeLa pLuc705 cells were setup in 96 well plates with the appropriate dilutions of test compounds either FITC labeled peptides or FITC labeled PMO conjugates diluted into complete culture media (up to 100 µM). Cells were then then trypsinised, diluted to 4×10^5 cells per mL and 100 μL added to each well giving a final volume of 200 μL in each well. Cells were then incubated for either 4 or 24 hours at either 4 or 37° c.
(§3) Uptake of fluorescently-labelled PMO and peptides was determined by flow cytometry using an Accuri C6 flow cytometer. Cells were washed with PBS and glycine buffer then released with trypsin, and kept on ice before analysis in PBS containing 2.5% FBS. Cell fluorescence in single live cells was determined using FlowJo software after appropriate gating. Untreated cells were used to establish gating settings for the determination of the % fluorescein-positive cells, mean fluorescent intensity (MFI) was also calculated. Uptake was determined by gating cells that were able exclude cell-impermanent die (To-pro-3) indicating the ability of cells to retain membrane integrity.

Data set [2] relates to HeLa pLuc 705 cells. The data set can be described thus: Flow cytometry uptake of FITC labeled CPAs (FL1+ cells, MFI). The conditions noted are these: 4 hours; for number of FL1 positive cells, cyclized vs non-cyclised (NC) peptide: cyclised peptide compared to its non-cyclised control. Format: cell-based. How it is done: as §1, §2, §3
For orientation: In flow cytometry, cells or beads pass a laser one at a time.

Entries after “also recorded” stand apart in the source; their conditions may differ. Positions of bridges follow the written chain, without caps; N, C: chain ends. Non-standard residues stand in square brackets, D forms with d. Residues, ends and D or L forms follow the SMILES beside them. *: point of attachment. FITC = O=C1OC2(c3ccc(O)cc3Oc3cc(O)ccc32)c2ccc(NC(=S)*)cc21; PEG6 = NCCOCCOCCOCCOCCOCCOCCC(=O)O; S5 = C=CCCC[C@](C)(N)C(=O)O

As to `CC(C)C[C@@H]1NC(=O)[C@H](CCCNC(=N)N)NC(=O)[C@@H](NC(=O)[C@H](Cc2ccccc2)NC(=O)[C@H](CCCCN)NC(=O)[C@H](CCCNC(=N)N)NC(=O)CCOCCOCCOCCOCCOCCOCCNC(=S)Nc2ccc3c(c2)C(=O)OC32c3ccc(O)cc3Oc3cc(O)ccc32)CCC(=O)NCCCC[C@@H](C(N)=O)NC(=O)[C@H](Cc2ccccc2)NC1=O` [K1E5-P8M-FITC] ({FITC-PEG6}-RKFERLFK-NH2; lactam 4-8; N-terminus assumed), the “% cell viability compared to RCM1,5-P8M-FITC-3+” value with HeLa pLuc 705 cells [1] (4 hours, all concentrations) is “increase”. Also, the “% of cells recovered when normalized to untreated controls (% viable cells)” value with HeLa pLuc 705 cells [1] (4 hours, cyclised versus non-cyclised peptide) is on record as “no significant difference”. Besides, the “cellular toxicity / impact on cell viability” value in the data set with HeLa pLuc 705 cells [1] (all concentrations 0.05 to 100 μM, listed as K1E5-CP8M-FITC) is “no adverse cellular toxicity; also recorded: do not have any negative impact”. In addition, in the data set with HeLa pLuc 705 cells [1] (over the range of concentrations (0.05 to 100 μM)), the “increase in viability comparing RCM1,5-P8M-FITC to K1E5-P8M-FITC” value was 70-99%. In addition, in the data set with HeLa pLuc 705 cells [2] (2 way ANOVA), the “MFI, cyclised vs non-cyclised (NC) peptide” value is “no interaction affect” and the “number of FL1 positive cells, cyclized vs non-cyclised (NC) peptide” value is reported as “no significant difference”. For the same compound, in the data set with HeLa pLuc 705 cells [2] (2 way ANOVA, listed as K1E5-CP8M-FITC), the “number of FL1 positive cells, cyclized vs non-cyclised (NC) peptide” value is reported as “no difference”.
Regarding `CC[C@H](C)[C@H](NC(=O)CCOCCOCCOCCOCCOCCOCCNC(=S)Nc1ccc2c(c1)C(=O)OC21c2ccc(O)cc2Oc2cc(O)ccc21)C(=O)N[C@H](C(=O)N[C@@H](Cc1ccccc1)C(=O)N[C@@]1(C)CCCC=CCCC[C@@](C)(C(N)=O)NC(=O)[C@H](Cc2ccccc2)NC(=O)[C@H](CC(C)C)NC(=O)[C@H]([C@@H](C)CC)NC1=O)[C@@H](C)CC` [RCM1,5-P8M-FITC-0+] ({FITC-PEG6}-IIF[S5]ILF[S5]-NH2; staple 4-8), the “viable cells over RCM1,5-CP8M-FITC-3+ and RCM1,5-CP8M-FITC-2+” value in the data set on HeLa pLuc 705 cells [1] (0.05 μM, 4 hours) is recorded as “increase”. For the same compound, in the data set on HeLa pLuc 705 cells [2] (at a given concentration, increase for 3+ at higher concentrations >1 μM), the “MFI compared between RCM1,5 charge variants” value is given as “no significant difference”. The “FL1+ cells compared to other RCM1,5 charge variants” value in the data set on HeLa pLuc 705 cells [2] (over a range of concentrations) is “increase”.
